Measured values from ChEMBL document CHEMBL1201862, “PubChem BioAssay data set” (2004).
Activity calls are given as the source filed them.

How the values were obtained:
HEK293 [1] = experiment: optical interference in Abeta FP readout, dose response, artefact control for IDE activator project, biochemical, fluorescence polarization (AID 588442); format: functional, cell-based; conditions: Homo sapiens
[2] = NIH-3T3 fibroblast cytotoxicity, dose response, cytotoxicity control, cell-based, fluorescence, Alamar Blue, secondary assay (AID 2327); format: functional;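 also: NIH-3T3 mouse fibroblasts cultured with fluconazole at 8 µg/mL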
[3] = biological target: T1, Apoptotic protease-activating factor 1 (Homo sapiens, UniProt O14727); format: functional
T1 sequence (O14727 whole entry): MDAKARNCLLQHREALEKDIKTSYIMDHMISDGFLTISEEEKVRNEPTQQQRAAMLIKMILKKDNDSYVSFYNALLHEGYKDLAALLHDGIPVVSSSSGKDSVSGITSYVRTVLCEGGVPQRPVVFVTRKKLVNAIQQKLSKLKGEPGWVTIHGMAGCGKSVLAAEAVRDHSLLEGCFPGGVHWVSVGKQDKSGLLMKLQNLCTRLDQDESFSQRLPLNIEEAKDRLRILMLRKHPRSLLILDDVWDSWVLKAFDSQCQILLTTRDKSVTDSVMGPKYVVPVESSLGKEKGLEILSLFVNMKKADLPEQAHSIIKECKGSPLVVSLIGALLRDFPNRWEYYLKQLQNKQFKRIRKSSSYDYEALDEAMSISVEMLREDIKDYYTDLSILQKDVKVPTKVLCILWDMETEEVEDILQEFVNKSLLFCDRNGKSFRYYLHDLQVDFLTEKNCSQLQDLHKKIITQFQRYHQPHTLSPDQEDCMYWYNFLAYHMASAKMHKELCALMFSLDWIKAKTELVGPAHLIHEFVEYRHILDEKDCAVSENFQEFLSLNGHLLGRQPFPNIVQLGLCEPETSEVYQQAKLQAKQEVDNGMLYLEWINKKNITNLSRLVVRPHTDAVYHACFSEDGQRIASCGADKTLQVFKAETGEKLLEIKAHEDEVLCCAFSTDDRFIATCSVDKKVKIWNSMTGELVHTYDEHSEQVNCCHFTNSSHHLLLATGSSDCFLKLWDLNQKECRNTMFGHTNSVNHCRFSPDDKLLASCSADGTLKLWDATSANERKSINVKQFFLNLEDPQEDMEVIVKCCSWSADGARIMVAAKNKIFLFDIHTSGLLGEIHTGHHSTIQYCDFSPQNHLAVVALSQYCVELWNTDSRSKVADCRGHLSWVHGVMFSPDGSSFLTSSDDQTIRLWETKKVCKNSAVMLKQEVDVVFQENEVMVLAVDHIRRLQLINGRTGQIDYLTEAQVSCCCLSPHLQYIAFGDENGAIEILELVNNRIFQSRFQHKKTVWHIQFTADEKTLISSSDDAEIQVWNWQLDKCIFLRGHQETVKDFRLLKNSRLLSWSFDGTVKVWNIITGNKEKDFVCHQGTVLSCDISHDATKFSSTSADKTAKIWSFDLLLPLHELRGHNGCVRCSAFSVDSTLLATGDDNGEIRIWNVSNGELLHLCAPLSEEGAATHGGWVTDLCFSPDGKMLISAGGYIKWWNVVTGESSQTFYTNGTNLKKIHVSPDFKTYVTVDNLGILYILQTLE

Bcl-2-related protein A1 = biological target: T2, Bcl-2-related protein A1 (Mus musculus, UniProt Q07440); format: functional;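 also: confirmatory dose–response counterscreen on Bfl-1, used to check hits from a UBC13 polyubiquitin inhibitor campaign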
T2 sequence (Q07440 whole entry): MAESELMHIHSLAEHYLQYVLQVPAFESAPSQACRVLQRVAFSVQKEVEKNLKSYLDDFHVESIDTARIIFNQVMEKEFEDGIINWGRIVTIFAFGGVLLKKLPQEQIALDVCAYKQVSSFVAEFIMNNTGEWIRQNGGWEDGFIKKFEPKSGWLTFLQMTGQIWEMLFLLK

[4] = microbe, parasite or virus in culture; format: functional; conditions: Mycobacterium tuberculosis
Insulin-degrading enzyme [5] = biological target: T3, Insulin-degrading enzyme (Homo sapiens, UniProt P14735); experiment: activators of recombinant IDE enzyme, dose response, counter-screen for IDE activator project, biochemical, fluorescence polarization (AID 588681)
T3 sequence (P14735 whole entry): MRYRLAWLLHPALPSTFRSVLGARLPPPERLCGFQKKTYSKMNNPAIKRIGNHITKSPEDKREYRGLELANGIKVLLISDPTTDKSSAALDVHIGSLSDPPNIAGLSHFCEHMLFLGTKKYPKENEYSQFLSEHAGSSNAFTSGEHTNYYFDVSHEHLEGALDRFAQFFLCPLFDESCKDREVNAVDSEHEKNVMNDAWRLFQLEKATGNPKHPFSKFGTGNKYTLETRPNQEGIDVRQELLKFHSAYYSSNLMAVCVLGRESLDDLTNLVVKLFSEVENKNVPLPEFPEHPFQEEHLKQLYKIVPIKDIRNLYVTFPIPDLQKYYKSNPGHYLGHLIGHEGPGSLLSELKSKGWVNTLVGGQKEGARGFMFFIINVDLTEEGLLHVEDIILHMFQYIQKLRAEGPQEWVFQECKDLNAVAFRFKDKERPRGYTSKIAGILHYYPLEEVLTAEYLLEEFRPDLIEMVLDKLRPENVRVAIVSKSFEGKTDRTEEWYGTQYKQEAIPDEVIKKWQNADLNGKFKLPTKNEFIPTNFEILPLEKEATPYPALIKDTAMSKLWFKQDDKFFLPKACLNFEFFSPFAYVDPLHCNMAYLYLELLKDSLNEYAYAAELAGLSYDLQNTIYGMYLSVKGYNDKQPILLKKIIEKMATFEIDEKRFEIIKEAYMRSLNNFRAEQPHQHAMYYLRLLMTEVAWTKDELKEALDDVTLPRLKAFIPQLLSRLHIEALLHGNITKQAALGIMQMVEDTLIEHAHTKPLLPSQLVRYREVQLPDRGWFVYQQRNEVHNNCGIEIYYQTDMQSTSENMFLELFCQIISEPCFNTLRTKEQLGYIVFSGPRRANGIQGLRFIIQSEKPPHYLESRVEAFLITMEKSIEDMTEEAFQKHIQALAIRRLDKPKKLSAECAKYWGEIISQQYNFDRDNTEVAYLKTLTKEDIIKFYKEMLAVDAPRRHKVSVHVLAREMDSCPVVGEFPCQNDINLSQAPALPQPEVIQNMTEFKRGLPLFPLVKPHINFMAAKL

HEK293 [6] = experiment: HEK cell cytotoxicity by LDH release, dose response, cytotoxicity control for IDE activator project, fluorescence, HEK cells (AID 588440); format: functional, cell-based; conditions: Homo sapiens;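 also: cytotoxicity by LDH release measuring loss of membrane integrity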
[7] = biological target: T4, Ubiquitin-conjugating enzyme E2 N (Homo sapiens, UniProt P61088); format: functional
T4 sequence (P61088 whole entry): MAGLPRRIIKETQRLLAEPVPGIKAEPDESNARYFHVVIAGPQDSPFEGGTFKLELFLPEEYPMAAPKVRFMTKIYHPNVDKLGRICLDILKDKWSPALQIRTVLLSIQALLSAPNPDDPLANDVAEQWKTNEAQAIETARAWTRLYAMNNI

Insulin-degrading enzyme [8] = biological target: T3, Insulin-degrading enzyme; experiment: activators of endogenous IDE in HEK cells, dose response, cell-based, fluorescence polarization (AID 588439); format: functional
[9] = C. albicans growth with fluconazole, confirmation, fluorescence, retest (AID 2467); format: functional, cell-based
[10] = biological target: T4, Ubiquitin-conjugating enzyme E2 N; format: functional; remark: listed apart in the source
[11] = biological target: T5, High affinity choline transporter 1 (Homo sapiens, UniProt Q9GZV3); experiment: CHT inhibitors, dose response, cell-based, 5-point CRC, membrane potential dye (AID 504840); format: functional
T5 sequence (Q9GZV3 whole entry): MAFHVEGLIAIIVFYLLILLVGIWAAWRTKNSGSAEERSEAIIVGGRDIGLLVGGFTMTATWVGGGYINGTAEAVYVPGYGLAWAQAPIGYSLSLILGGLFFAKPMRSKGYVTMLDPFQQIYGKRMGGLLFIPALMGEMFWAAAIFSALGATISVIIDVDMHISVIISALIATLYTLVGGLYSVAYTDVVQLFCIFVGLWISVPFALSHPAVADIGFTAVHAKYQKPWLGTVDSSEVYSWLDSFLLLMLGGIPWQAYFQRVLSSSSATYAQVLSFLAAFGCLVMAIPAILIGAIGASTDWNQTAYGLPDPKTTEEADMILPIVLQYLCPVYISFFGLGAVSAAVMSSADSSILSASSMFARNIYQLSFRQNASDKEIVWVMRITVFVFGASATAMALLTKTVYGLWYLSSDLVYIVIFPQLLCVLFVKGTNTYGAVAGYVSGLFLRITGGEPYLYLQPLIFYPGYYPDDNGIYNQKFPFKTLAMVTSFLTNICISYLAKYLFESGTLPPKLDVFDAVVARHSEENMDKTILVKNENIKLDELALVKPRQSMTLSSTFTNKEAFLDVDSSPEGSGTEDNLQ

[12] = biological target: T5, High affinity choline transporter 1; experiment: CHT inhibitors, dose response, cell-based, 10-point CRC, membrane potential dye (AID 588401); format: functional;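 also: membrane potential dye fluorescence of choline-evoked depolarization via CHT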
[13] = biological target: T5, High affinity choline transporter 1; experiment: inhibitors of CHT choline uptake, dose response, cell-based, 3H-choline uptake, CHT LV-AA trafficking mutant, CRC (AID 602208); format: functional
[14] = biological target: Ras and Rab interactor 1/Tyrosine-protein kinase ABL1 (Homo sapiens, UniProt P00519+Q13671); format: functional;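 also: biochemical TR-FRET dose-response test measuring inhibition of binding between Rin1 and Abl proteins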
Interleukin-8 [15] = biological target: T6, Interleukin-8 (Homo sapiens, UniProt P10145); experiment: Dose Response confirmation of uHTS small molecule hits for cystic fibrosis induced NFkb Inhibitors in a PAF-induced IL8 counterscreen.; format: functional; conditions: read-out: IC50_Mean
T6 sequence (P10145 whole entry): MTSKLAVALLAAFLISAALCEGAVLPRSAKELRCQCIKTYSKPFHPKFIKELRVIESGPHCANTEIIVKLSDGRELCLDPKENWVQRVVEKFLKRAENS

Interleukin-8 [16] = biological target: T6, Interleukin-8; experiment: Dose Response confirmation of uHTS small molecule hits for cystic fibrosis induced NFkb Inhibitors in a TNFa-induced IL8 counterscreen.; format: functional; conditions: read-out: IC50_Mean
[17] = biological target: DNA repair and recombination protein RAD54-like (Homo sapiens, UniProt Q92698); experiment: inhibitors of human RAD54 branch migration, confirmation, biochemical, fluorescence, cherry-picked samples, dose series (AID 651657); format: functional
Chain of DNA repair and recombination protein RAD54-like (Q92698 whole entry): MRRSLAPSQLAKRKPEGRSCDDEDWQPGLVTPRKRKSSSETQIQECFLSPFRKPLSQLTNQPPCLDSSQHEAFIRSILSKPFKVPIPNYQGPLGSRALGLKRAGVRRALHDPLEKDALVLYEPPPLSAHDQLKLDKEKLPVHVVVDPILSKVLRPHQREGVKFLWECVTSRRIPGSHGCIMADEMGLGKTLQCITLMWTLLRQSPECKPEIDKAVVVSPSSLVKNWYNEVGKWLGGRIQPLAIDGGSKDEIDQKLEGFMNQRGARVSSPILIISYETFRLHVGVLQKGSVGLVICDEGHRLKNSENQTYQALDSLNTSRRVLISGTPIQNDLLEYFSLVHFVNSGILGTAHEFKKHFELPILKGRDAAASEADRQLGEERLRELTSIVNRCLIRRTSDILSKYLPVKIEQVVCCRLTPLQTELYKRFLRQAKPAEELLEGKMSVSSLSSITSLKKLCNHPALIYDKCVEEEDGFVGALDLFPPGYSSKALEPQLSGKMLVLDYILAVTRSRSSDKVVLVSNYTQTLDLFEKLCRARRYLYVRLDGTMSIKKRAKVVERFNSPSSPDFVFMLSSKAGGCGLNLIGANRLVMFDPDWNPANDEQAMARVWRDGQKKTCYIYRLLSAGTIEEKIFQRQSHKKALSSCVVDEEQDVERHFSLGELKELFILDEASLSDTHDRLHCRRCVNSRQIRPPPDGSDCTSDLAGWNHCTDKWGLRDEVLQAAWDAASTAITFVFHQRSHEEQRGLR

Chain of Ras and Rab interactor 1/Tyrosine-protein kinase ABL1 (P00519 whole entry): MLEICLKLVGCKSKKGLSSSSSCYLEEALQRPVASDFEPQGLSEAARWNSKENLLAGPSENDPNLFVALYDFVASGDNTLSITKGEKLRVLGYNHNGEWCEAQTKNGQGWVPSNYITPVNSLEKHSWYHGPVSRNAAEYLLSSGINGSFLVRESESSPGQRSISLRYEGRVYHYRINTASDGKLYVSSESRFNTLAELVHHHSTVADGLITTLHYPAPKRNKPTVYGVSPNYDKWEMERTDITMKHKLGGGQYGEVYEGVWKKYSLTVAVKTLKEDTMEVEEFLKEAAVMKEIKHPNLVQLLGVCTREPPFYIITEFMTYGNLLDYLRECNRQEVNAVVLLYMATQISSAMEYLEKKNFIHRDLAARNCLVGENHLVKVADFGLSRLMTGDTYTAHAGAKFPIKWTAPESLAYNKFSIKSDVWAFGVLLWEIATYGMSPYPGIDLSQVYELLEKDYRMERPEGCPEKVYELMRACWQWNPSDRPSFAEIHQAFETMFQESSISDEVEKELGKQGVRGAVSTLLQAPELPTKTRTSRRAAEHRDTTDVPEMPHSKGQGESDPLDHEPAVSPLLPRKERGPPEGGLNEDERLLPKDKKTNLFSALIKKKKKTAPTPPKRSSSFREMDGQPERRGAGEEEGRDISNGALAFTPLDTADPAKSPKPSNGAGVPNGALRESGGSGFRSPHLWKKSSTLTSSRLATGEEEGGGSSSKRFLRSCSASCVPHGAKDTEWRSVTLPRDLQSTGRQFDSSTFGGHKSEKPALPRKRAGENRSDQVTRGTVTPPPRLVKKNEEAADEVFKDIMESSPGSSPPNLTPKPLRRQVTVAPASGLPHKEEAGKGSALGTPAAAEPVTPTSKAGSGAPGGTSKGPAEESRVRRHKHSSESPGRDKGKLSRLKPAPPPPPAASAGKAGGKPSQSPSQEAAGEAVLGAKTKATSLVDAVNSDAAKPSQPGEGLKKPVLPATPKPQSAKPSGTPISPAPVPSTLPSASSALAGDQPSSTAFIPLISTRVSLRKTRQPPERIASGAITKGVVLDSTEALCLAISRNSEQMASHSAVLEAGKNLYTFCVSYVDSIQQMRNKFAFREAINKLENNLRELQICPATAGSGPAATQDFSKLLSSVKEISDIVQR
Chain of Ras and Rab interactor 1/Tyrosine-protein kinase ABL1 (Q13671 whole entry): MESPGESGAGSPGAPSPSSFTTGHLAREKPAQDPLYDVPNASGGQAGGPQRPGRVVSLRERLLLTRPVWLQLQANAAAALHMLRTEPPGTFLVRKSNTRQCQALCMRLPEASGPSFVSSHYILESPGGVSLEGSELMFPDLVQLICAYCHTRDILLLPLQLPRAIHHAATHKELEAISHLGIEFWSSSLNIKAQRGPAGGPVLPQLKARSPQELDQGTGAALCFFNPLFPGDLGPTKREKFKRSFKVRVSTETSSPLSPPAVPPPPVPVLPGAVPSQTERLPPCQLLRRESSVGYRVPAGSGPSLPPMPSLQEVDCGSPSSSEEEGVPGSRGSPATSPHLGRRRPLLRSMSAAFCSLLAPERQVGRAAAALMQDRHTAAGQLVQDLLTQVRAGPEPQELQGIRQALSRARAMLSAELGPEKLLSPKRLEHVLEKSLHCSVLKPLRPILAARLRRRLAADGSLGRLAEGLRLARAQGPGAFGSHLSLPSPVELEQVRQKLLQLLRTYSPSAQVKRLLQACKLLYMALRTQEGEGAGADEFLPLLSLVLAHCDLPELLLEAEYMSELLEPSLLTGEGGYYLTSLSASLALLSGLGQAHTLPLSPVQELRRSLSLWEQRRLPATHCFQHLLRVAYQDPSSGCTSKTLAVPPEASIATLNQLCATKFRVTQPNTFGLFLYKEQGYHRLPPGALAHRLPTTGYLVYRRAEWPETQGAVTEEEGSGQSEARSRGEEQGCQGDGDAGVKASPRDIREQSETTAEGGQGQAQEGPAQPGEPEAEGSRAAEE

NC1=NC[C@H](CC2CCCCC2)N1CCc1cc(C(F)(F)F)cc(C(F)(F)F)c1
EC50 (HEK293 [1]): > 54.7 µM (inactive) | EC50 [2]: 65.2 µM (active) | IC50 [3]: 74.7 µM (active) | IC50 (Bcl-2-related protein A1): > 20 µM (inactive) | CC50 [4]: 26 µM (active) | EC50 (Insulin-degrading enzyme [5]): > 54.7 µM (inactive) | IC50 (HEK293 [6]): 10.9 µM (inactive) | IC50 [7]: 17.2 µM (active) | EC50 (Insulin-degrading enzyme [8]): 9.93 µM (active) | EC50 [9]: 7.64 µM (active) | IC50 [10]: 14.6 µM (active)

O=C(Nc1ccc(S(=O)(=O)NC2=NCCCCC2)cc1)c1ccc(Cl)cc1Cl
IC50 [11]: 7.42 µM (active) | IC50 [12]: 4.47 µM (active) | IC50 [13]: 0.864 µM (active)

CC1(C)Cc2nc3sc4c(=O)[nH]cnc4c3cc2CS1
IC50 [14]: > 0.302 µM (active)

Brc1ccc2ncnc(NCc3cccnc3)c2c1
IC50 (Interleukin-8 [15]): 4.61 µM (active) | IC50 (Interleukin-8 [16]): 1.77 µM (active)

CN(C)CCN(C(=O)c1ccc2c(c1)OCCO2)c1nc2c(Cl)cccc2s1
AC50 [17]: 55.1 µM (active)
